Patent publication US20240366644A1, “ANTI-INFLAMMATORY APPLICATION OF GINSENOSIDE RD” (priority 2022, published 2024)

What was measured:
[1] = tested on: xylene-induced swelling of mouse ears; test: Xylene-induced swelling of mouse ears; assay type: in vivo, Kunming mice; details: for Ear mass difference / Swelling degree: 4 h after xylene
Procedure: […] KM mice, weighing 18-22 g, were randomly grouped, with ten mice in each group. The groups include a model group, a positive control group (Indomethacin, 10 mg/kg), a ginsenoside Rd low-dose group (5 mg/kg), and a ginsenoside Rd high-dose group (10 mg/kg). After 30 min of gavage administration of mice (the model group was administrated with the equal volume of 0.5% sodium carboxymethylcellulose by gavage), 0.03 ml of xylene was evenly applied to both sides of the right ear of each mouse in each group to cause inflammations on both sides, and the left ear of the mouse was not applied as a control. After 4 h, the mouse was killed by dislocation of cervical vertebra, the two ears of the mouse were cut off along the auricle, round ear slices of the same size (a diameter of 6 mm) were taken at the same position of the left and right ears and weighed respectively, a mass difference of the two ear slices was used as an ear swelling degree, and a swelling inhibition rate was calculated.

[2] = tested on: COVID-19 Delta virus-infected mice; test: IL-1β and MCP-1 expression (RT-qPCR) in lung homogenates of COVID-19 Delta virus-infected mice; assay type: in vivo, hACE2 transgenic C57BL/6 mice; details: for IL-1β expression level in lung homogenate / MCP-1 expression level in lung homogenate: mRNA, blank group 1.00, Day 5 of infection
[3] = tested on: mice with acute lung injury; test: Inflammatory factors (ELISA) in lung tissue and alveolar lavage fluid of mice with LPS acute lung injury; assay type: in vivo, Balb/c mice; details: for IL-1β in alveolar lavage fluid / IL-1β in lung tissue / IL-6 in alveolar lavage fluid / IL-6 in lung tissue / IL-18 in alveolar lavage fluid / IL-18 in lung tissue / TNF-α in alveolar lavage fluid / TNF-α in lung tissue: 24 h after modeling
Procedure: Balb/c male mice, weighing 20-22 g, were randomly divided into five groups according to body weights, with eight mice in each group: a blank control group (propylene glycol-0.5% carboxymethylcellulose sodium), a model group (LPS, 15 mg/kg), a ginsenoside Rd low-dose group (10 mg/kg), a ginsenoside Rd high-dose group (20 mg/kg), and a Dexamethasone group (5 mg/kg). Mice in each group were intraperitoneally injected; after 1 h of administration, except for the blank control group, the mice in each group were intratracheally instilled with 20 μg of LPS for modeling; and the blank control group was intratracheally instilled with an equal volume of PBS.
After 1 h of administration, a mouse ALI model was established; each mouse was intraperitoneally injected with sodium pentobarbital at 30 mg/kg, anesthetized and fixed on an operating table dorsally; skin preparation was carried out on the neck; the skin was incised to expose the trachea; 20 μg of LPS was instilled into the trachea using a microglass syringe; and then the mouse was gently rotated head up on the operating table, such that the instilled liquid was evenly distributed in the mouse lungs, and the skin incision was sutured.
After 24 h of modeling, anesthetized mice were intraperitoneally injected with sodium pentobarbital at 30 mg/kg; lung tissues of the mice were taken and rinsed repeatedly in pre-cooled normal saline; the lung tissues were blood-removed, wiped with filter paper, weighed, and added with normal saline according to a ratio of 1:9 (W:V=1 g:9 ml); a tissue homogenate was prepared with a homogenization machine under an ice water bath; and a supernatant of mouse lung tissue homogenate was taken.
The mouse was anesthetized, and the trachea was separated; the whole lung was lavaged with 0.5 ml of pre-cooled normal saline, stayed for 1 min, and slowly pumped back with a syringe, and this process was repeated three times; and BLAF was collected, and centrifuged for 15 min at 4° C. and 1600 rpm/min.
In strict accordance with the operating instructions of an enzyme-linked immunosorbent assay kit (ELISA), the contents of TNF-α, IL-1β, IL-6 and IL-18 in the supernatant of mouse lung tissue homogenate and the BLAF supernatant were detected.

[4] = tested on: Chronic Obstructive Pulmonary Disease in Rats; test: Serum TNF-α and IL-8 in rats with chronic obstructive pulmonary disease (LPS + smoking); assay type: in vivo, SD rats
Procedure: After adaptive feeding (20-25° C., a humidity of 50-60%) for 1 week, the rats were randomly divided into a blank group, a model group, a positive control group, a ginsenoside Rd high-dose group, and a ginsenoside Rd low-dose group, with ten rats in each group.
Model group: on the Day 1 and Day 14, each rat was intraperitoneally injected with 10% chloral hydrate (300 mg/kg) for anesthesia; the head was fixed in a low position; the glottis was exposed; lipopolysaccharide was quickly injected into the trachea; and the rat was kept upright, and swung left and right for 10-20 s, such that the lipopolysaccharide was evenly distributed in the two lungs. On the Days 2-13, and 15-28, the lungs were smoked in a closed organic glass box for 30 min every day, with 15 cigarettes per day.
Positive control group: the animal was anesthetized, and intratracheally injected with lipopolysaccharide, wherein smoking conditions and time were the same as those of the model group; and after tracheal injection of lipopolysaccharide for two weeks, the animal was administrated with Simvastatin by gavage (2.5 mg/kg), and killed after six weeks, and serum was collected.
In accordance with the instructions, the levels of TNF-α and IL-8 in the serum were detected by enzyme-linked immunosorbent assay. The data was expressed as x±s, p<0.05, which meant that it was statistically significant.

[5] = tested on: Chronic Obstructive Pulmonary Disease in Rats; test: Lung pathomorphology of rats with chronic obstructive pulmonary disease; assay type: in vivo, SD rats
[6] = 5 mg/kg gavage 30 min before xylene
[7] = 10 mg/kg gavage 30 min before xylene
[8] = 10 mg/kg intraperitoneal 1 h before LPS
[9] = 20 mg/kg intraperitoneal 1 h before LPS

SMILES: CC(C)=CCC[C@](C)(O[C@@H]1O[C@H](CO)[C@@H](O)[C@H](O)[C@H]1O)[C@H]1CC[C@]2(C)[C@@H]1[C@H](O)C[C@@H]1[C@@]3(C)CC[C@H](O[C@@H]4O[C@H](CO)[C@@H](O)[C@H](O)[C@H]4O[C@@H]4O[C@H](CO)[C@@H](O)[C@H](O)[C@H]4O)C(C)(C)[C@@H]3CC[C@]12C [Ginsenoside Rd, ginsenoside Rd]
- Ear mass difference [1, 6]: 11.84 ± 1.02 mg
- Swelling degree [1, 6]: 7.56 ± 2.05 (mg) (%)
- ear swelling inhibition rate compared with Indomethacin ([1]; 10 mg/kg): close to that of Indomethacin
- Ear mass difference [1, 7]: 7.68 ± 0.39 mg
- Swelling degree [1, 7]: 6.59 ± 1.96 (mg) (%)
- inhibition at 5 mg/kg ([1]; Mus musculus, po, ear swelling, 5 mg/kg gavage, read-out: Inhibition rate): 30.3%
- inhibition at 10 mg/kg ([1]; Mus musculus, po, ear swelling, 10 mg/kg gavage, read-out: Inhibition rate): 39.3%
- ear swelling of mice caused by xylene ([1]; compared with the model group): significantly inhibit ear swelling
- IL-1β and MCP-1 inflammatory factors ([2]; compared with the virus model group): significantly reduced
- IL-1β expression level in lung homogenate ([2]; 10 mg/kg gavage): 20.88 ± 6.42
- MCP-1 expression level in lung homogenate ([2]; 10 mg/kg gavage): 18.71 ± 13.75
- IL-1β expression level in lung homogenate ([2]; 20 mg/kg gavage): 10.13 ± 6.68
- MCP-1 expression level in lung homogenate ([2]; 20 mg/kg gavage): 7.15 ± 9.36
- IL-1β in alveolar lavage fluid [3, 8]: 79.63 ± 21.33 ng/L
- IL-1β in lung tissue [3, 8]: 80.23 ± 18.08 ng/L
- IL-6 in alveolar lavage fluid [3, 8]: 39.37 ± 9.12 ng/L
- IL-6 in lung tissue [3, 8]: 84.70 ± 10.84 ng/L
- IL-18 in alveolar lavage fluid [3, 8]: 81.20 ± 21.27 ng/L
- IL-18 in lung tissue [3, 8]: 94.03 ± 15.22 ng/L
- TNF-α in alveolar lavage fluid [3, 8]: 344.09 ± 61.08 ng/L
- TNF-α in lung tissue [3, 8]: 98.14 ± 14.48 ng/L
- IL-1β in alveolar lavage fluid [3, 9]: 49.51 ± 6.89 ng/L
- IL-1β in lung tissue [3, 9]: 30.52 ± 13.42 ng/L
- IL-6 in alveolar lavage fluid [3, 9]: 29.53 ± 8.99 ng/L
- IL-6 in lung tissue [3, 9]: 36.81 ± 13.45 ng/L
- IL-18 in alveolar lavage fluid [3, 9]: 44.64 ± 17.91 ng/L
- IL-18 in lung tissue [3, 9]: 37.54 ± 15.80 ng/L
- TNF-α in alveolar lavage fluid [3, 9]: 186.04 ± 75.00 ng/L
- TNF-α in lung tissue [3, 9]: 46.88 ± 19.52 ng/L
- contents of TNF-α, IL-1β, IL-6 and IL-18 in the lung tissues and BLAF ([3]; compared with the model group): significantly reduce
- effect on TNF-α, IL-1β, IL-6 and IL-18 contents compared with Dexamethasone ([3]; high-dose group 20 mg/kg, P<0.01): better than that of Dexamethasone
- IL-8 in serum ([4]; high-dose 10 mg/kg): 24.88 ± 14.67
- TNF-α in serum ([4]; high-dose 10 mg/kg): 12.13 ± 17.06
- efficacy on serum inflammatory factors compared with Simvastatin ([4]; high-dose group): considerable to that of Simvastatin
- IL-8 in serum ([4]; low-dose 5 mg/kg): 30.97 ± 13.70
- TNF-α in serum ([4]; low-dose 5 mg/kg): 12.92 ± 10.20
- Epithelial cell necrosis Mild ([5]; 5 mg/kg): 6
- Epithelial cell necrosis Moderate ([5]; 5 mg/kg): 4
- Epithelial cell necrosis Severe ([5]; 5 mg/kg): 0
- Interstitial inflammatory cell infiltration Mild ([5]; 5 mg/kg): 6
- Interstitial inflammatory cell infiltration Moderate ([5]; 5 mg/kg): 4
- Interstitial inflammatory cell infiltration Severe ([5]; 5 mg/kg): 0
- Epithelial cell necrosis Mild ([5]; 10 mg/kg): 7
- Epithelial cell necrosis Moderate ([5]; 10 mg/kg): 3
- Epithelial cell necrosis Severe ([5]; 10 mg/kg): 0
- Interstitial inflammatory cell infiltration Mild ([5]; 10 mg/kg): 7
- Interstitial inflammatory cell infiltration Moderate ([5]; 10 mg/kg): 3
- Interstitial inflammatory cell infiltration Severe ([5]; 10 mg/kg): 0
- lung lesions ([5]; 10 mg/kg and 5 mg/kg, compared with the model group): good improvement effects on lung lesions
- effect on lung lesions compared with the Simvastatin group ([5]; high-dose group 10 mg/kg): considerable to the Simvastatin group
